Earlier results, collected in patent US12533314B2, “Low sodium oxybate once nightly composition” (Tris Pharma, Inc., priority 2023, dated 2026).

Conditions: in vivo

## O=C(O)CCCO [Oxybate, Gamma-hydroxybutyrate]
  plasma half-life: 30 to 45 min
